Reference: patent US20220089592A1, “IMIDAZO[1,2-A]PYRIDINYL DERIVATIVES AS IRAK4 INHIBITORS” (priority 2019, published 2022)

Tests used:
IRAK4 [1] = target: T1, IRAK4 (Homo sapiens, UniProt Q9NWZ3); assay: 2-hour 1 mM ATP IRAK4 Biochemical assay (as above, but with 100 pM IRAK4 and 1 mM ATP); settings: IRAK4 MSD BIOCHEMICAL (1 mM ATP) IC50 (μM), 100 pM IRAK4, 2 hours
T1 sequence (Q9NWZ3 1-460): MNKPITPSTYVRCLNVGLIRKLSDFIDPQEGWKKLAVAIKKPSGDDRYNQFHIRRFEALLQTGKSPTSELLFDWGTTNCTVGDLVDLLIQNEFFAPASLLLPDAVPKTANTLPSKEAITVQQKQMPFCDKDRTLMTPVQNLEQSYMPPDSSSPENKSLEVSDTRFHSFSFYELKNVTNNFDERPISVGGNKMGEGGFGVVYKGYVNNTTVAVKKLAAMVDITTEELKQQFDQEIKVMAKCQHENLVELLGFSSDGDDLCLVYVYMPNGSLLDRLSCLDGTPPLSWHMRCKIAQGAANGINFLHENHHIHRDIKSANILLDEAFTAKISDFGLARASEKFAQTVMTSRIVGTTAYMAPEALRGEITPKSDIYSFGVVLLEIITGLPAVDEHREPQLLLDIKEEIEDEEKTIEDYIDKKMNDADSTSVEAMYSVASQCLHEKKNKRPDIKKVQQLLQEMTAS
How it was run: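 MSD electrochemiluminescence read-out: biotinylated peptide product bound to streptavidin plates, probed with anti-P-Thr rabbit antibody and Sulfo-Tag goat anti-rabbit. Kinase reaction used 1 mM ATP and 100 pM IRAK4 over 2 hours before EDTA quench.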

IRAK4 [2] = target: T1, IRAK4; assay: 2-hour 10 μM ATP Biochemical Assay (MesoScale Detection format; IRAK4 phosphorylation of biotin labeled IRAK1 activation loop peptide); settings: IRAK4 MSD BIOCHEMICAL (10 μM ATP) IC50 (μM), 1 nM IRAK4, 2 hours
How it was run: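 Electrochemiluminescent MSD readout: after streptavidin capture, phosphothreonine on the biotin-labelled IRAK1 activation-loop peptide detected by rabbit antibody and Sulfo-Tag secondary. Phosphorylation ran 2 h with 10 μM ATP before EDTA quench.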

SMILES | IC50 (IRAK4 [1]) [µM] | IC50 (IRAK4 [2]) [µM]
CCOCc1cn2cc(NC(=O)c3cccc(C(F)(F)F)n3)c(OCC)cc2n1 [Example 55, N-(7-ethoxy-2-(ethoxymethyl)imidazo[1,2-a]pyridin-6-yl)-6-(trifluoromethyl)picolinamide] | 0.015 | 0.003
CCOc1nc(NC(=O)c2cccc(OC)n2)cn2cc(C3CCOCC3)nc12 [Example 147, N-(8-ethoxy-2-(tetrahydro-2H-pyran-4-yl)imidazo[1,2-a]pyrazin-6-yl)-6-methoxypicolinamide] | 0.051 | 0.011
CCOc1cc2nc(CN3CCCC3=O)cn2cc1NC(=O)c1cccc(C(F)F)n1 [Example 85, 6-(difluoromethyl)-N-(7-ethoxy-2-((2-oxopyrrolidin-1-yl)methyl)imidazo[1,2-a]pyridin-6-yl)picolinamide] | 0.012 | 0.002
CCOc1cc2nc(C3CCOCC3)cn2cc1NC(=O)c1csc(C(F)(F)F)n1 [Example 231, N-(7-ethoxy-2-(tetrahydro-2H-pyran-4-yl)imidazo[1,2-a]pyridin-6-yl)-2-(trifluoromethyl)thiazole-4-carboxamide] | 0.007 | 0.001
CCOc1cc2nc(C[C@@H]3CCOC3)cn2cc1NC(=O)c1cccc(C(F)F)n1 (single isomer, unassigned) [Example 16] | 0.001 | 0.001
CCOc1cc2nc(C3CCOCC3)cn2cc1NC(=O)c1ccccc1OC [Example 213, N-(7-ethoxy-2-(tetrahydro-2H-pyran-4-yl)imidazo[1,2-a]pyridin-6-yl)-2-methoxybenzamide] | 0.019 | 0.005
CCOc1cc2nc(CC)cn2cc1NC(=O)c1cccc(C(F)(F)F)n1 [Example 1, N-(7-ethoxy-2-ethylimidazo[1,2-a]pyridin-6-yl)-6-(trifluoromethyl)picolinamide] | 0.011 | 0.003
CCOc1cc2nc(CC3CCOC3)cn2cc1NC(=O)c1coc(C)n1 (centres unmarked) [Example 159, N-(7-ethoxy-2-((tetrahydrofuran-3-yl)methyl)imidazo[1,2-a]pyridin-6-yl)-2-methyloxazole-4-carboxamide] | 0.051 | 0.006
CCOc1cc2nc(C34CC(C)(C3)C4)cn2cc1NC(=O)c1cccc(C(F)(F)F)n1 [Example 520, N-(7-ethoxy-2-(3-methylbicyclo[1.1.1]pentan-1-yl)imidazo[1,2-a]pyridin-6-yl)-6-(trifluoromethyl)picolinamide 2,2,2-trifluoroacetate] | 0.005 | 0.001
N#CCOc1cc2nc(C3CCOCC3)cn2cc1NC(=O)c1cccc(C(F)F)n1 [Example 172, N-(7-(cyanomethoxy)-2-(tetrahydro-2H-pyran-4-yl)imidazo[1,2-a]pyridin-6-yl)-6-(difluoromethyl)picolinamide] | 0.004 | 0.002
CCOc1cc2nc([C@H]3C[C@@H]3F)cn2cc1NC(=O)c1cccc(C(F)F)n1 (stereo in doubt) [Example 253, 6-(difluoromethyl)-N-(7-ethoxy-2-((1R*,2S*)-2-fluorocyclopropyl)imidazo[1,2-a]pyridin-6-yl)picolinamide] | 0.005 | 0.002
CCOc1cc2nc(C3CCOC3)cn2cc1NC(=O)c1cccc(C(F)(F)F)n1 (centres unmarked) [Example 59, N-(7-ethoxy-2-(tetrahydrofuran-3-yl)imidazo[1,2-a]pyridin-6-yl)-6-(trifluoromethyl)picolinamide] | 0.003 | 0.002
CC1(COc2cc3nc(C[C@@H]4CCOC4)cn3cc2NC(=O)c2cccc(C(F)(F)F)n2)COC1 (single isomer, unassigned) [Example 164] | 0.005 | 0.003
CCOc1cc2nc(CC(F)CO)cn2cc1NC(=O)c1cccc(C(F)F)n1 (centres unmarked) [Example 99, 6-(difluoromethyl)-N-(7-ethoxy-2-(2-fluoro-3-hydroxypropyl)imidazo[1,2-a]pyridin-6-yl)picolinamide] | 0.004 | 0.002
CC1(COc2cc3nc(C4CC4)cn3cc2NC(=O)c2cccc(C(F)F)n2)COC1 [Example 50, N-(2-cyclopropyl-7-((3-methyloxetan-3-yl)methoxy)imidazo[1,2-a]pyridin-6-yl)-6-(difluoromethyl)picolinamide] | 0.014 | 0.004
CCOc1cc2nc([C@]34CCOC[C@H]3C4)cn2cc1NC(=O)c1cccc(C(F)F)n1 (relative stereo) [Example 249, N-(2-((1S*,6R*)-3-oxabicyclo[4.1.0]heptan-6-yl)-7-ethoxyimidazo[1,2-a]pyridin-6-yl)-6-(difluoromethyl)picolinamide] | 0.001 | 0.001

SMILES | IC50 (IRAK4 [1]) [µM] | IC50 (IRAK4 [2]) [µM]
CCOc1cc2nc(CC3CCOC3)cn2cc1NC(=O)c1coc(-c2cnn(C)c2)n1 (centres unmarked) [Example 22, N-(7-ethoxy-2-((tetrahydrofuran-3-yl)methyl)imidazo[1,2-a]pyridin-6-yl)-2-(1-methyl-1H-pyrazol-4-yl)oxazole-4-carboxamide] | 0.002 | 0.001
O=C(Nc1cn2cc(C3CC3)nc2cc1OCc1ccccc1)c1cccc(C(F)F)n1 [Example 9, N-(7-(benzyloxy)-2-cyclopropylimidazo[1,2-a]pyridin-6-yl)-6-(difluoromethyl)picolinamide] | 0.01 | 0.005
CCOc1cc2nc(CC3CCOC3)cn2cc1NC(=O)c1ccn(C)n1 (centres unmarked) [Example 155, N-(7-ethoxy-2-((tetrahydrofuran-3-yl)methyl)imidazo[1,2-a]pyridin-6-yl)-1-methyl-1H-pyrazole-3-carboxamide] | 0.016 | 0.005
CCOc1cc2nc([C@H](C)[C@@H]3CCOC3)cn2cc1NC(=O)c1cccc(C(F)(F)F)n1 (single isomer, unassigned) [Example 138] | 0.001 | 0.001
CCOc1cc2nc(C34CC(F)(C3)C4)cn2cc1NC(=O)c1cccc(C(F)F)n1 [Example 127, 6-(difluoromethyl)-N-(7-ethoxy-2-(3-fluorobicyclo[1.1.1]pentan-1-yl)imidazo[1,2-a]pyridin-6-yl)picolinamide] | 0.003 | 0.001
CCOc1cc2nc(C[C@H]3CCOC3)cn2cc1NC(=O)c1cccc(C(F)F)n1 (single isomer, unassigned) [Example 15] | 0.001 | 0.001
CCOc1cc2nc(CC3CCOC3)cn2cc1NC(=O)c1ccn(CC(F)(F)F)n1 (centres unmarked) [Example 123, N-(7-ethoxy-2-((tetrahydrofuran-3-yl)methyl)imidazo[1,2-a]pyridin-6-yl)-1-(2,2,2-trifluoroethyl)-1H-pyrazole-3-carboxamide] | 0.014 | 0.008
CCOc1cc2nc(C3CCOCC3)cn2cc1NC(=O)c1ccn2c1CCC2 [Example 225, N-(7-ethoxy-2-(tetrahydro-2H-pyran-4-yl)imidazo[1,2-a]pyridin-6-yl)-2,3-dihydro-1H-pyrrolizine-7-carboxamide] | 0.029 | 0.009
CCOc1cc2nc(C(C)(C)C#N)cn2cc1NC(=O)c1csc(C)n1 [Example 241, N-(2-(2-cyanopropan-2-yl)-7-ethoxyimidazo[1,2-a]pyridin-6-yl)-2-methylthiazole-4-carboxamide] | 0.041 | 0.01
CCOc1cc2nc(CO)cn2cc1NC(=O)c1cccc(C(F)(F)F)n1 [Example 18, N-(7-ethoxy-2-(hydroxymethyl)imidazo[1,2-a]pyridin-6-yl)-6-(trifluoromethyl)picolinamide] | 0.014 | 0.004
CCOc1cc2nc(C3CCOCC3)cn2cc1NC(=O)c1ccn2c1CCCC2 [Example 222, N-(7-ethoxy-2-(tetrahydro-2H-pyran-4-yl)imidazo[1,2-a]pyridin-6-yl)-5,6,7,8-tetrahydroindolizine-1-carboxamide] | 0.041 | 0.01
CCOc1cc2nc(C3CCOCC3)cn2cc1NC(=O)c1ccccn1 [Example 216, N-(7-ethoxy-2-(tetrahydro-2H-pyran-4-yl)imidazo[1,2-a]pyridin-6-yl)picolinamide] | 0.023 | 0.007
CCOc1cc2nc(C3CC3)cn2cc1NC(=O)c1cccc(C(F)(F)F)n1 [Example 2, N-(2-cyclopropyl-7-ethoxyimidazo[1,2-a]pyridin-6-yl)-6-(trifluoromethyl)picolinamide] | 0.016 | 0.003
CCOc1cc2nc(C3CCOCC3)cn2cc1NC(=O)c1csc(C2CC2)n1 [Example 203, 2-cyclopropyl-N-(7-ethoxy-2-(tetrahydro-2H-pyran-4-yl)imidazo[1,2-a]pyridin-6-yl)thiazole-4-carboxamide] | 0.001 | 0.001
CCOc1nc2nc(C3CCOCC3)cn2cc1NC(=O)c1cccc(C(F)F)n1 [Example 372, 6-(difluoromethyl)-N-(7-ethoxy-2-(tetrahydro-2H-pyran-4-yl)imidazo[1,2-a]pyrimidin-6-yl)picolinamide] | 0.002 | 0.001
